Assay results taken from patent US5922879A, “N-aminoalkyl-2-anthraquinonecarboxamides: new dopamine receptor subtype specific ligands” (Neurogen Corporation, priority 1997, dated 1999).
Where a name gives a salt, the structure may show the parent alone.

Columns and labels:
D2 receptors = test: D2 receptor binding (displacement of 0.5 nM 3H-YM 09151-2); design: species or system African Green monkey; conditions: pellets of COS cells with recombinant D2, nonspecific binding with 1 mM spiperone
Method: (§1) Assay for D2 and D3 Receptor Binding Activity
(§2) Pellets of COS cells containing recombinantly produced D2 or D3 receptors from African Green monkey were used for the assays. The sample is homogenized in 100 volumes (w/vol) of 0.05 M Tris HCl buffer at 4° C. and pH 7.4. The sample is then centrifuged at 30,000 ×g and resuspended and rehomogenized. The sample is then centrifuged as described and the final tissue sample is frozen until use. The tissue is resuspended 1:20 (wt/vol) in 0.05 M Tris HCl buffer containing 100 mM NaCl.
The binding characteristics of representative compounds of the invention for D2 and D3 receptor subtypes are shown in Table 2 for rat striatal homogenates.

D3 receptors = target: T1, D3 receptors (Chlorocebus aethiops, UniProt P52703); test: D3 receptor binding (displacement of 0.5 nM 3H-YM 09151-2); design: species or system African Green monkey; conditions: pellets of COS cells with recombinant D3, nonspecific binding with 1 mM spiperone
T1 construct: expressed in transfected cells; host or cells: COS cells
T1 sequence (P52703 whole entry): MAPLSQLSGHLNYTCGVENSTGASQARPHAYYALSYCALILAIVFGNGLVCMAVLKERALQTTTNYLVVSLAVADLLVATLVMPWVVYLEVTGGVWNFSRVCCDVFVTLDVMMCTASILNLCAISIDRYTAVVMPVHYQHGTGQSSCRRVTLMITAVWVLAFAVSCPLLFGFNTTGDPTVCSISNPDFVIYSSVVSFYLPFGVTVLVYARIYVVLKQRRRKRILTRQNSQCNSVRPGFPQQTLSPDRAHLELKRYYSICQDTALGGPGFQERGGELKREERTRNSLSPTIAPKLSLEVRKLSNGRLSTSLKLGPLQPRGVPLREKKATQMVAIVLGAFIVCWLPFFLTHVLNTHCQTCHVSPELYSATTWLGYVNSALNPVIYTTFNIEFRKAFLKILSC
Method: as §1, §2
Incubations are carried out at 48° C. and contain 0.4 ml of tissue sample, 0.5 nM ^3 H-YM 09151-2 and the compound of interest in a total incubation of 1.0 ml. Nonspecific binding is defined as that binding found in the presence of […] spiperone; without further additions, nonspecific binding is less than 20% of total binding. The binding characteristics of representative compounds of the invention for D2 and D3 receptor subtypes are shown in Table 2 for rat striatal homogenates.

Row | Compound | Ki (D2 receptors) [nM] | Ki (D3 receptors) [nM]
1 | O=C(NCCCCN1CCN(c2cccc(Cl)c2Cl)CC1)c1ccc2c(c1)C(=O)c1ccccc1C2=O [Compound 1, N-(1-{4-[4-(2,3-Dichlorophenyl)piperazin-1-yl]}butyl)-2anthraquinonecarboxamide hydrochloride] | 154 | 4
2 | Cc1c(Cl)cccc1N1CCN(CCCCNC(=O)c2ccc3c(c2)C(=O)c2ccccc2C3=O)CC1 [Compound 4, N-(1-{4-[4-(2-Methyl-3-chlorophenyl)piperazin-1-yl]}butyl)-2-anthraquinonecarboxamide hydrochloride] | 61 | 2
3 | N-(1-{4-[4(8-Quinolinyl)piperazin-1-yl]}butyl)-2-anthraquinonecarboxamide hydrochloride [Compound 6] | 45 | –
